This is an account of results in patent US7563818B2, “Photosensitizer functionalised nanoparticles” (Cancer Research Technology Limited, priority 2001, dated 2009).

Where two headings read alike, the source gives them in different places.

The conditions of data set [1]: cited from earlier work.
Data set [2] in a line: Singlet oxygen quantum yield, method of Nonell and Braslavsky. The note with it: for Increase in ΦΔ: addition of 1 mM TOAB to the free Pc. It counts as physicochemical. On the procedure:
Singlet oxygen quantum yields, ΦΔ, for both the free and bound Pc were determined (Table 1) using the method of Nonell and Braslavsky.^24 The Pc coated nanoparticles were referenced to perinapthenone in ethanol (ΦΔ=0.97)^25, whilst free Pc was referenced to perinapthenone and octa-decyl zinc phthalocyanine^17 in toluene (ΦΔ=1.0 and 0.7 respectively). After deoxygenation of the Pc samples no singlet oxygen could be detected. […] The value of ΦΔ of 0.45 for the free Pc in toluene is consistent with previous measurements of similar metallated Pcs.^26

Data set [3] can be described thus: Solubility in polar solvents. The note with it: polar solvents (e.g. ethanol, methanol, DMSO). It counts as physicochemical. An excerpt: Transmission electron micrographs of the Pc-gold nanoparticles are consistent with those reported by several groups for other thiol-stabilized MPCs in that they show small, 2-4 nm, non-aggregated particles—FIG. 2. […] A similar change in solubility was recently reported by Imahori et al.^23 for a porphyrin self-assembled on gold nanoparticles used as an artificial photosynthetic material.

A short description of data set [4]: Fluorescence lifetime by time-correlated single photon counting. It counts as physicochemical. From the text:
Fluorescence lifetime (τ) measurements were obtained by using the method of time-correlated single photon counting. For both the free and bound phthalocyanine optimum fits (X2) were obtained for the double exponential and τ1 and τ2 values are shown in table 1.

Setting [5] is: double exponential fit, free Pc in toluene, Pc-nanoparticles in ethanol.
Where [6] appears, read: in toluene with addition of 1 mM TOAB.

Turning to `O=C1C=Cc2cccc3cccc1c23` [perinapthenone], the “ΦΔ singlet oxygen quantum yield of reference” value in data set [1] (in ethanol) is on record as 0.97; in data set [1] (in toluene), 1.0.
In the case of `CCCCCCc1ccc(CCCCCC)c2c1-c1nc3nc(nc4[nH]c(nc5[nH]c(nc-2n1)c1c(CCCCCC)ccc(CCCCCC)c51)c1c(CCCCCC)ccc(CCCCCC)c41)-c1c(C)ccc(CCCCCCCCCCCS)c1-3` [Free Pc, 1,4,8, 11, 15, 18-hexahexyl-22-(11-mercaptoundecyl)-25-methyl phthalocyanine], the “Increase in ΦΔ” value in data set [2] is “ca. 10%”. Besides, the “Increase in ΦΔ” value in data set [2] (listed as free phthaloyanine) was “about 10%”. Besides, the “φΔ singlet oxygen quantum yield” value in data set [2] (free Pc in toluene, Pc-nanoparticles in ethanol, referenced to perinapthenone (and octa-decyl zinc phthalocyanine for free Pc)) came out at 0.45. For the same molecule, in data set [3], the “Solubility in polar solvents” value is on record as “insoluble”. Moreover, in data set [4] (setting [5]), the “τ1 (yield)” value is recorded as 91%, the τ1 fluorescence lifetime was 2.1 ns, the “τ2 (yield)” value is 9% and the τ2 fluorescence lifetime is recorded as 1.11 ns. Further, in data set [4] (setting [6]), the “τ1 (yield)” value is 76%, the τ1 fluorescence lifetime was 0.7 ns, the “τ2 (yield)” value is recorded as 24% and the τ2 fluorescence lifetime is listed as 1.7 ns.
Regarding octa-decyl zinc phthalocyanine, in data set [1] (in toluene), the “ΦΔ singlet oxygen quantum yield of reference” value was 0.7.
